Consider 32 molecules from US11530210B2, “Substituted heteroaromatic pyrazolo-pyridines and their use as GLUN2B receptor modulators” (JANSSEN PHARMACEUTICA NV, priority 2019, dated 2022).

Structures are written as SMILES. Structures can show the parent of a compound that is named as a salt.

The experiment has as its target T1, human GluN1/GluN2B NMDA receptors (Homo sapiens, UniProt Q13224).
T1 construct: expressed in transfected cells
Nature of the experiment: Calcium flux (FLIPR) assay on cloned human NR1/GluN2B ion channels expressed in mammalian cells (standard and HTS variants). It counts as cell-based. The following applies: cells expressing human GluN1/GluN2B, glutamate and glycine co-agonists. Here is the method:
Effects of Test Articles on Cloned Human NR1/GuN2B Ion Channels Expressed in Mammalian Cells
NMDA receptors are ion channels that are highly permeable to Ca^2+ ions, rendering it possible to monitor NMDA receptor function using cell-based calcium flux assay. In this assay, co-agonists glutamate and glycine are added to cells heterologously expressing human GluN1/GluN2B NMDA receptors to initiate cellular Ca^2+ influx. The time course of the changes in intracellular calcium is measured using a fluorescent dye and a FLIPR (Fluorometric Imaging Plate Reader) device.
Twenty-four hours before measurements, the expression of the NMDA receptors in the stable cell line is induced with Tet-On inducible system in the presence of a non-selective NMDA receptor blocker. On the day of the experiment, cell culture media is carefully washed, and the cells are loaded with Calcium 5 Dye Kit (Molecular Devices) in dye loading buffer containing 137 mM NaCl, 4 mM KCl, 2 mM CaCl2, 0.5 mM MgCl2 (standard assay) or 1.5 mM MgCl2 (HTS assay), 10 mM HEPES and 5 mM D-glucose; pH 7.4. After 1 h incubation at the room temperature, the dye is washed away with the assay buffer (137 mM NaCl (standard assay) or 150 mM (HTS assay), 4 mM KCl (standard assay) or 3 mM (HTS assay), 2 mM CaCl2), 0.01 mM EDTA, 10 mM HEPES and 5 mM D-glucose; pH 7.4) In the FLIPR TETRA reader, various concentrations of the test compounds are added to the cells for 5 min while fluorescence is monitored to detect potential agonist activity. Next, co-agonists, glutamate and glycine are added for another 5 minutes. The concentration of glutamate corresponding to ˜EC40 (standard assay) or EC40 (HTS assay) is used to maximize the assay's signal window and ability to detect NMDA receptor antagonists and negative allosteric modulators. A saturating concentration (10 μM) of glycine is also present in the assay. A non-selective NMDA receptor antagonist, (+)MK-801 is used as a positive control for antagonist activity. The fluorescent signal in the presence of test compounds is quantified and normalized to the signal defined by the appropriate control wells.
A general note: Calcium assays in cells follow changes in intracellular calcium, usually with a dye or a luminescent sensor.

Broadly, the IC50 is the concentration that inhibits the measured activity by half.

T1 sequence (Q13224 27-1484, other chains not shown): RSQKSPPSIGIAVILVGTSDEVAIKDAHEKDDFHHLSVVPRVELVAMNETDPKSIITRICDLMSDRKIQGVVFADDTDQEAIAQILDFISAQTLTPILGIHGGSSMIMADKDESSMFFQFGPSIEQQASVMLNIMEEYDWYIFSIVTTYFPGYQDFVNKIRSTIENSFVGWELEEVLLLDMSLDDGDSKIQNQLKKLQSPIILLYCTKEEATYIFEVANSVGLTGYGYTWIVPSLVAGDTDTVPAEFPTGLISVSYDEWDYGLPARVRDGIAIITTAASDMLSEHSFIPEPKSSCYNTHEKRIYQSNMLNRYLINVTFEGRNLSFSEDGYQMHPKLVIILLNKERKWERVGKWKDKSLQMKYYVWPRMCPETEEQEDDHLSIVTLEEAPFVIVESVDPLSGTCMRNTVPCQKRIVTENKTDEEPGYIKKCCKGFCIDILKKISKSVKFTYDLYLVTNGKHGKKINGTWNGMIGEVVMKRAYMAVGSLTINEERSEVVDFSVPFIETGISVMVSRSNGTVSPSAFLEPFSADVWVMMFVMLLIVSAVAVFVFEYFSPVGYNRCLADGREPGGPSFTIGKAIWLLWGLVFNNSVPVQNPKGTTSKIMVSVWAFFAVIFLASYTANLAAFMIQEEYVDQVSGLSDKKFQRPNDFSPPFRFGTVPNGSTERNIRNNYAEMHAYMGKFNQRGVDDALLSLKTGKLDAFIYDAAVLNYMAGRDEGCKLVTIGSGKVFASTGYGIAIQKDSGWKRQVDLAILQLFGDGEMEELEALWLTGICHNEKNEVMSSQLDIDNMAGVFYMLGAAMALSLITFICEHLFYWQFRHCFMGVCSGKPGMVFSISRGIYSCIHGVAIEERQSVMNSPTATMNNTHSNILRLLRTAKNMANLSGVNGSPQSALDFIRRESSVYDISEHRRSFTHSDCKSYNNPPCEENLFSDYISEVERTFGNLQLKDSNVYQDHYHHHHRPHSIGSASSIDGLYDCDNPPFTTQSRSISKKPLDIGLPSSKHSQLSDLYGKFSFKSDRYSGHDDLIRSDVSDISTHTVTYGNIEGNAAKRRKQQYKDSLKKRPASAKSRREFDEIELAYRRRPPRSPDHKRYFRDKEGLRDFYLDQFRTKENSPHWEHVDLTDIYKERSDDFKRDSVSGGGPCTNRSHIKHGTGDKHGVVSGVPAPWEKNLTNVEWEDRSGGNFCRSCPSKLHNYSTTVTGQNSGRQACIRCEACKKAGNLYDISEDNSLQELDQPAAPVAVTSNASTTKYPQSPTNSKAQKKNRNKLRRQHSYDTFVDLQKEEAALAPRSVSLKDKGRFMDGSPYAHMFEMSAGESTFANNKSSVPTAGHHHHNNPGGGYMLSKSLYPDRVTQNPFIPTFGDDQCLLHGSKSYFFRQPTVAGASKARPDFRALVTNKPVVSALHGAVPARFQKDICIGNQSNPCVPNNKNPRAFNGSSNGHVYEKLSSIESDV

Regarding `FC(F)(F)c1cccc(-c2cnc3cnn(Cc4ncccn4)c3c2)c1` [Example 1, 1-(Pyrimidin-2-ylmethyl)-6-[3-(trifluoromethyl)phenyl]pyrazolo[4,3-b]pyridine], the half-inhibitory concentration (IC50) turned out to be 800 nM.
Regarding `FC(F)(F)c1cccc(-c2cnc3cnn(Cc4cncc(Br)c4)c3c2)c1` [Example 2, 1-[(5-Bromo-3-pyridyl)methyl]-6-[3-(trifluoromethyl)phenyl]pyrazolo[4,3-b]pyridine], the IC50 was 329 nM.
Take `N#Cc1cncc(Cn2ncc3ncc(-c4cccc(C(F)(F)F)c4)cc32)c1` [Example 3, 5-[[6-[3-(Trifluoromethyl)phenyl]pyrazolo[4,3-b]pyridin-1-yl]methyl]pyridine-3-carbonitrile]: the 50% inhibitory concentration (IC50) came to 483 nM.
`Cc1ncc(Cn2ncc3ncc(-c4cccc(C(F)(F)F)c4)cc32)cn1` [Example 4, 1-[(2-Methylpyrimidin-5-yl)methyl]-6-[3-(trifluoromethyl)phenyl]pyrazolo[4,3-b]pyridine trifluoroacetate salt]: the 50% inhibitory concentration (IC50) is 4670 nM.
Regarding `FC(F)(F)c1cccc(-c2cnc3cnn(Cc4cnccn4)c3c2)c1` [Example 5, 1-(Pyrazin-2-ylmethyl)-6-[3-(trifluoromethyl)phenyl]pyrazolo[4,3-b]pyridine dihydrochloride salt], the IC50 came out at 237 nM.
As for `FC(F)(F)c1cccc(-c2cnc3cnn(Cc4ccncn4)c3c2)c1` [Example 6, 1-(Pyrimidin-4-ylmethyl)-6-[3-(trifluoromethyl)phenyl]pyrazolo[4,3-b]pyridine hydrochloride salt], the IC50 worked out at 819 nM.
Consider `FC(F)(F)c1cccc(-c2cnc3cnn(Cc4nnco4)c3c2)c1` [Example 7, 2-[[6-[3-(Trifluoromethyl)phenyl]pyrazolo[4,3-b]pyridin-1-yl]methyl]-1,3,4-oxadiazole], for which the IC50 came to 748 nM.
With `Cc1cnc(Cn2ncc3ncc(-c4ccc(F)c(C)c4F)cc32)o1` [Example 9, 2-[[6-(2,4-Difluoro-3-methyl-phenyl)pyrazolo[4,3-b]pyridin-1-yl]methyl]-5-methyl-oxazole], the IC50 stood at 78 nM.
Under `Fc1ccc(-c2cnc3cnn(Cc4cn[nH]c4)c3c2)cc1OC(F)F` [Example 11, 6-[3-(Difluoromethoxy)-4-fluoro-phenyl]-1-(1H-pyrazol-4-ylmethyl)pyrazolo[4,3-b]pyridine] stands 486 nM; under `Cc1nnc(Cn2ncc3ncc(-c4ccc(F)c(C(F)F)c4)cc32)[nH]1` [Example 13, 6-[3-(Difluoromethyl)-4-fluoro-phenyl]-1-[(5-methyl-4H-1,2,4-triazol-3-yl)methyl]pyrazolo[4,3-b]pyridine], 1960 nM; under `Cc1cc(Cn2ncc3ncc(-c4cccc(C(F)(F)F)c4)cc32)[nH]n1` [Example 14, 1-[(3-Methyl-1H-pyrazol-5-yl)methyl]-6-[3-(trifluoromethyl)phenyl]pyrazolo[4,3-b]pyridine], 4740 nM.
With `CNc1nnc(Cn2ncc3ncc(-c4ccc(F)c(OC(F)F)c4)cc32)s1` [Example 15, 5-[[6-[3-(Difluoromethoxy)-4-fluoro-phenyl]pyrazolo[4,3-b]pyridin-1-yl]methyl]-N-methyl-1,3,4-thiadiazol-2-amine], the 50% inhibitory concentration (IC50) is over 2990 nM.
Turning to `Nc1nnc(Cn2ncc3ncc(-c4ccc(F)c(C(F)F)c4)cc32)s1` [Example 16, 5-[[6-[3-(difluoromethyl)-4-fluoro-phenyl]pyrazolo[4,3-b]pyridin-1-yl]methyl]-1,3,4-thiadiazol-2-amine], the IC50 is 1050 nM.
Next, `Oc1nnc(Cn2ncc3ncc(-c4ccc(F)c(C(F)F)c4)cc32)s1` [Example 17, 5-[[6-[3-(Difluoromethyl)-4-fluoro-phenyl]pyrazolo[4,3-b]pyridin-1-yl]methyl]-1,3,4-thiadiazol-2-ol]: 64 nM; `Nc1nnc(Cn2ncc3ncc(-c4ccc(F)c(OC(F)F)c4)cc32)s1` [Example 18, 5-[[6-[3-(Difluoromethoxy)-4-fluoro-phenyl]pyrazolo[4,3-b]pyridin-1-yl]methyl]-1,3,4-thiadiazol-2-amine]: 3550 nM.
Regarding `CC(=O)Nc1nnc(Cn2ncc3ncc(-c4ccc(F)c(OC(F)F)c4)cc32)s1` [Example 19, N-(5-((6-(3-(Difluoromethoxy)-4-fluorophenyl)-1H-pyrazolo[4,3-b]pyridin-1-yl)methyl)-1,3,4-thiadiazol-2-yl)acetamide], the IC50 was over 2990 nM.
As to `FC(F)(F)c1cccc(-c2cnc3cnn(Cc4ncon4)c3c2)c1` [Example 20, 3-[[6-[3-(Trifluoromethyl)phenyl]pyrazolo[4,3-b]pyridin-1-yl]methyl]-1,2,4-oxadiazole], the IC50 worked out at 751 nM.
Under `FC(F)(F)c1cccc(-c2cnc3cnn(Cc4ccccc4)c3c2)c1` [Example 21, 1-Benzyl-6-[3-(trifluoromethyl)phenyl]pyrazolo[4,3-b]pyridine hydrochloride salt] stands 3280 nM.
Next, `Fc1cccc(Cn2ncc3ncc(-c4cccc(C(F)(F)F)c4)cc32)c1` [Example 22, 1-[(3-Fluorophenyl)methyl]-6-[3-(trifluoromethyl)phenyl]pyrazolo[4,3-b]pyridine hydrochloride salt]: 1820 nM.
Next, `N#Cc1cccc(Cn2ncc3ncc(-c4cccc(C(F)(F)F)c4)cc32)c1` [Example 23, 3-[[6-[3-(Trifluoromethyl)phenyl]pyrazolo[4,3-b]pyridin-1-yl]methyl]benzonitrile]: 400 nM.
As to `COc1ccc(Cn2ncc3ncc(-c4cccc(C(F)(F)F)c4)cc32)cc1` [Example 24, 1-[(4-Methoxyphenyl)methyl]-6-[3-(trifluoromethyl)phenyl]pyrazolo[4,3-b]pyridine hydrochloride salt], the IC50 turned out to be 7930 nM.
With `FC(F)(F)c1ccc(Cn2ncc3ncc(-c4cccc(C(F)(F)F)c4)cc32)cc1` [Example 25, 6-[3-(Trifluoromethyl)phenyl]-1-[[4-(trifluoromethyl)phenyl]methyl]pyrazolo[4,3-b]pyridine hydrochloride salt], the IC50 is over 10000 nM.
Under `N#Cc1cccc(Cn2ncc3ncc(-c4ccc(F)c(C(F)F)c4)cc32)c1` [Example 26, 3-[[6-[3-(Difluoromethyl)-4-fluoro-phenyl]pyrazolo[4,3-b]pyridin-1-yl]methyl]benzonitrile] stands 62 nM; under `Fc1cc(F)cc(Cn2ncc3ncc(-c4ccc(F)c(C(F)F)c4)cc32)c1` [Example 27, 6-[3-(Difluoromethyl)-4-fluoro-phenyl]-1-[(3,5-difluorophenyl)methyl]pyrazolo[4,3-b]pyridine], 394 nM.
Next, `N#Cc1cc(F)cc(Cn2ncc3ncc(-c4ccc(F)c(C(F)F)c4)cc32)c1` [Example 28, 3-[[6-[3-(Difluoromethyl)-4-fluoro-phenyl]pyrazolo[4,3-b]pyridin-1-yl]methyl]-5-fluoro-benzonitrile]: 125 nM.
Take `N#Cc1cccc(Cn2ncc3ncc(-c4ccc(F)c(OC(F)F)c4)cc32)c1` [Example 29, 3-[[6-[3-(Difluoromethoxy)-4-fluoro-phenyl]pyrazolo[4,3-b]pyridin-1-yl]methyl]benzonitrile]: the IC50 turned out to be 65 nM.
Take `Fc1cc(F)cc(Cn2ncc3ncc(-c4ccc(F)c(OC(F)F)c4)cc32)c1` [Example 30, 6-[3-(Difluoromethoxy)-4-fluoro-phenyl]-1-[(3,5-difluorophenyl)methyl]pyrazolo[4,3-b]pyridine]: the IC50 came out at 536 nM.
Under `N#Cc1cc(F)cc(Cn2ncc3ncc(-c4ccc(F)c(OC(F)F)c4)cc32)c1` [Example 31, 3-[[6-[3-(Difluoromethoxy)-4-fluoro-phenyl]pyrazolo[4,3-b]pyridin-1-yl]methyl]-5-fluoro-benzonitrile] stands 389 nM; under `Cc1ccc(Cn2ncc3ncc(-c4ccc(F)c(C(F)F)c4)cc32)s1` [Example 32, 6-[3-(Difluoromethyl)-4-fluoro-phenyl]-1-[(5-methyl-2-thienyl)methyl]pyrazolo[4,3-b]pyridine], over 2990 nM; under `Fc1ccc(Cn2ncc3ncc(-c4ccc(F)c(C(F)F)c4)cc32)s1` [Example 33, 6-(3-(Difluoromethyl)-4-fluorophenyl)-1-((5-fluorothiophen-2-yl)methyl)-1H-pyrazolo[4,3-b]pyridine], 1030 nM.
`N#Cc1ccc(Cn2ncc3ncc(-c4ccc(F)c(C(F)F)c4)cc32)s1` [Example 34, 5-((6-(3-(Difluoromethyl)-4-fluorophenyl)-1H-pyrazolo[4,3-b]pyridin-1-yl)methyl)thiophene-2-carbonitrile]: the concentration for half-maximal inhibition (IC50) was found to be 353 nM.
Next, `CC(F)(F)c1cccc(-c2cnc3cnn(Cc4cn[nH]c4)c3c2)c1` [Example 35, 6-[3-(1,1-Difluoroethyl)phenyl]-1-(1H-pyrazol-4-ylmethyl)pyrazolo[4,3-b]pyridine]: 648 nM.
